Results published in patent publication US20050112573A1, “Method of detecting toxic substance” (priority 2001, published 2005).

Tested on: yeast genes (level of expressed mRNA)
Assay: DNA chip analysis of expressed mRNA of yeast genes after 2 h culture with a toxic chemical substance
Format: cell-based, Saccharomyces cerevisiae S288C
Summary of the method: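 Values are treated-to-control fluorescence ratios from a whole-yeast-genome DNA chip (65° C, over 12 h hybridization) using Cy3/Cy5-labelled cDNA from mRNA. Log-phase S288C cells in YPD at 25° C were exposed 2 h to a toxicant at sublethal, growth-inhibiting concentration.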

**Q.** Which “The level of expressed mRNA in the presence of chemical substance/” value (yeast gene YAL053W, ratio to control without chemical) does the source give for HgCl2 [(3)] here?
**A.** Its value is 1.3.

**Q.** And the “The level of expressed mRNA in the presence of chemical substance/The level of expressed mRNA in the absence of chemical substance” value (yeast gene YAR010C)?
**A.** The value was 1.2.

**Q.** And the “The level of expressed mRNA in the presence of chemical substance/The level of expressed mRNA in the absence of chemical substance” value (yeast gene YBL005W-A)?
**A.** Its value is 0.5.

**Q.** And the “The level of expressed mRNA in the presence of chemical substance/The level of expressed mRNA in the absence of chemical substance” value (yeast gene YBL041W)?
**A.** Its value is 0.9.

**Q.** What about the “The level of expressed mRNA in the presence of chemical substance/The level of expressed mRNA in the absence of chemical substance” value (yeast gene YBL043W) of the same substance?
**A.** The value was 1.1.

**Q.** And the “The level of expressed mRNA in the presence of chemical substance/” value (yeast gene YBL048W, ratio to control without chemical substance, 2 h culture)?
**A.** Its value is 2.3.

**Q.** What about the “The level of expressed mRNA in the presence of chemical substance/The level of expressed mRNA in the absence of chemical substance” value (yeast gene YBL078C) of the same substance?
**A.** Its value is 1.3.

**Q.** And the “The level of expressed mRNA in the presence of chemical substance/” value (yeast gene YBL107C, ratio to control without chemical substance, 2 h culture)?
**A.** The value was 0.4.

**Q.** And the “The level of expressed mRNA in the presence of chemical substance/in the absence of chemical substance” value (yeast gene YBR036C)?
**A.** The value was 1.8.

**Q.** What about the “The level of expressed mRNA in the presence of chemical substance/The level of expressed mRNA in the absence of chemical substance” value (yeast gene YBR214W) of the same substance?
**A.** Its value is 5.7.

**Q.** And the “The level of expressed mRNA in the presence of chemical substance/in the absence of chemical substance” value (yeast gene YBR298C)?
**A.** Its value is 1.6.

**Q.** And the “The level of expressed mRNA in the presence of chemical substance/The level of expressed mRNA in the absence of chemical substance” value (yeast gene YCL020W)?
**A.** Its value is 0.5.

**Q.** And the “The level of expressed mRNA in the presence of chemical substance/The level of expressed mRNA in the absence of chemical substance” value (yeast gene YCL027W)?
**A.** The value was 1.0.

**Q.** And the “The level of expressed mRNA in the presence of chemical substance/The level of expressed mRNA in the absence of chemical substance” value (yeast gene YCR004C)?
**A.** The value was 12.0.

**Q.** What about the “The level of expressed mRNA in the presence of chemical substance/The level of expressed mRNA in the absence of chemical substance” value (yeast gene YCR071C) of the same substance?
**A.** The value was 0.9.

**Q.** What about the “The level of expressed mRNA in the presence of chemical substance/The level of expressed mRNA in the absence of chemical substance” value (yeast gene YCR088W) of the same substance?
**A.** Its value is 1.2.

**Q.** And the “The level of expressed mRNA in the presence of chemical substance/The level of expressed mRNA in the absence of chemical substance” value (yeast gene YDL008W)?
**A.** Its value is 1.0.

**Q.** What about the “The level of expressed mRNA in the presence of chemical substance/” value (yeast gene YDL072C, ratio to control without chemical) of the same substance?
**A.** Its value is 3.5.

**Q.** And the “The level of expressed mRNA in the presence of chemical substance/in the absence of chemical substance” value (yeast gene YDL078C)?
**A.** Its value is 1.2.

**Q.** And the “The level of expressed mRNA in the presence of chemical substance/” value (yeast gene YDL204W, ratio to control without chemical)?
**A.** The value was 4.8.

**Q.** And the “The level of expressed mRNA in the presence of chemical substance/in the absence of chemical substance” value (yeast gene YDL215C)?
**A.** Its value is 1.0.

**Q.** What about the “The level of expressed mRNA in the presence of chemical substance/” value (yeast gene YDL222C, ratio to control without chemical) of the same substance?
**A.** The value was 1.5.

**Q.** What about the “The level of expressed mRNA in the presence of chemical substance/The level of expressed mRNA in the absence of chemical substance” value (yeast gene YDL238C) of the same substance?
**A.** Its value is 1.1.

**Q.** And the “The level of expressed mRNA in the presence of chemical substance/The level of expressed mRNA in the absence of chemical substance” value (yeast gene YDR055W)?
**A.** Its value is 2.2.

**Q.** And the “The level of expressed mRNA in the presence of chemical substance/The level of expressed mRNA in the absence of chemical substance” value (yeast gene YDR084C)?
**A.** Its value is 1.5.

**Q.** What about the “The level of expressed mRNA in the presence of chemical substance/The level of expressed mRNA in the absence of chemical substance” value (yeast gene YDR085C) of the same substance?
**A.** Its value is 1.6.

**Q.** What about the “The level of expressed mRNA in the presence of chemical substance/The level of expressed mRNA in the absence of chemical substance” value (yeast gene YDR104C) of the same substance?
**A.** Its value is 1.2.

**Q.** What about the “The level of expressed mRNA in the presence of chemical substance/The level of expressed mRNA in the absence of chemical substance” value (yeast gene YDR115W) of the same substance?
**A.** The value was 0.6.

**Q.** What about the “The level of expressed mRNA in the presence of chemical substance/The level of expressed mRNA in the absence of chemical substance” value (yeast gene YDR259C) of the same substance?
**A.** The value was 0.4.

**Q.** And the “The level of expressed mRNA in the presence of chemical substance/in the absence of chemical substance” value (yeast gene YDR297W)?
**A.** The value was 0.8.

**Q.** What about the “The level of expressed mRNA in the presence of chemical substance/The level of expressed mRNA in the absence of chemical substance” value (yeast gene YDR315C) of the same substance?
**A.** The value was 1.0.

**Q.** What about the “The level of expressed mRNA in the presence of chemical substance/” value (yeast gene YDR330W, ratio to control without chemical substance, 2 h culture) of the same substance?
**A.** The value was 1.2.

**Q.** What about the “The level of expressed mRNA in the presence of chemical substance/The level of expressed mRNA in the absence of chemical substance” value (yeast gene YDR358W) of the same substance?
**A.** Its value is 0.7.

**Q.** And the “The level of expressed mRNA in the presence of chemical substance/in the absence of chemical substance” value (yeast gene YDR387C)?
**A.** Its value is 1.2.

**Q.** And the “The level of expressed mRNA in the presence of chemical substance/The level of expressed mRNA in the absence of chemical substance” value (yeast gene YDR388W)?
**A.** The value was 1.2.

**Q.** And the “The level of expressed mRNA in the presence of chemical substance/” value (yeast gene YDR411C, ratio to control without chemical substance, 2 h culture)?
**A.** Its value is 1.8.

**Q.** And the “The level of expressed mRNA in the presence of chemical substance/The level of expressed mRNA in the absence of chemical substance” value (yeast gene YDR432W)?
**A.** Its value is 1.0.

**Q.** And the “The level of expressed mRNA in the presence of chemical substance/The level of expressed mRNA in the absence of chemical substance” value (yeast gene YDR481C)?
**A.** The value was 1.3.

**Q.** And the “The level of expressed mRNA in the presence of chemical substance/The level of expressed mRNA in the absence of chemical substance” value (yeast gene YDR510W)?
**A.** The value was 1.5.

**Q.** And the “The level of expressed mRNA in the presence of chemical substance/” value (yeast gene YDR511W, ratio to control without chemical substance, 2 h culture)?
**A.** The value was 0.9.

**Q.** And the “The level of expressed mRNA in the presence of chemical substance/” value (yeast gene YDR545W, ratio to control without chemical substance, 2 h culture)?
**A.** Its value is 0.6.

**Q.** And the “The level of expressed mRNA in the presence of chemical substance/” value (yeast gene YEL001C, ratio to control without chemical)?
**A.** The value was 1.4.

**Q.** What about the “The level of expressed mRNA in the presence of chemical substance/The level of expressed mRNA in the absence of chemical substance” value (yeast gene YEL042W) of the same substance?
**A.** The value was 1.7.

**Q.** And the “The level of expressed mRNA in the presence of chemical substance/The level of expressed mRNA in the absence of chemical substance” value (yeast gene YEL066W)?
**A.** Its value is 1.5.

**Q.** And the “The level of expressed mRNA in the presence of chemical substance/” value (yeast gene YER004W, ratio to control without chemical substance, 2 h culture)?
**A.** Its value is 1.9.

**Q.** And the “The level of expressed mRNA in the presence of chemical substance/” value (yeast gene YER035W, ratio to control without chemical substance, 2 h culture)?
**A.** Its value is 1.6.

**Q.** What about the “The level of expressed mRNA in the presence of chemical substance/The level of expressed mRNA in the absence of chemical substance” value (yeast gene YER039C) of the same substance?
**A.** The value was 1.0.

**Q.** And the “The level of expressed mRNA in the presence of chemical substance/” value (yeast gene YER079W, ratio to control without chemical substance, 2 h culture)?
**A.** Its value is 1.9.

**Q.** And the “The level of expressed mRNA in the presence of chemical substance/” value (yeast gene YER106W, ratio to control without chemical)?
**A.** Its value is 1.3.

**Q.** What about the “The level of expressed mRNA in the presence of chemical substance/The level of expressed mRNA in the absence of chemical substance” value (yeast gene YER107C) of the same substance?
**A.** Its value is 1.0.

**Q.** And the “The level of expressed mRNA in the presence of chemical substance/The level of expressed mRNA in the absence of chemical substance” value (yeast gene YER130C)?
**A.** Its value is 0.5.

**Q.** And the “The level of expressed mRNA in the presence of chemical substance/” value (yeast gene YER158C, ratio to control without chemical substance, 2 h culture)?
**A.** Its value is 0.9.

**Q.** What about the “The level of expressed mRNA in the presence of chemical substance/” value (yeast gene YER163C, ratio to control without chemical substance, 2 h culture) of the same substance?
**A.** Its value is 1.2.

**Q.** And the “The level of expressed mRNA in the presence of chemical substance/” value (yeast gene YER175C, ratio to control without chemical substance, 2 h culture)?
**A.** The value was 1.3.

**Q.** And the “The level of expressed mRNA in the presence of chemical substance/” value (yeast gene YFL006W, ratio to control without chemical substance, 2 h culture)?
**A.** Its value is 1.6.
